Assay results: article PMC8119466, “A screen of FDA-approved drugs identifies inhibitors of protein tyrosine phosphatase 4A3 (PTP4A3 or PRL-3)” (Scientific Reports, 2021)
Counter-ions that a name gives are not always drawn. Like-named read-outs stand apart in the source and are kept apart here. Starred links: 1 amine or outer side, 2 acyl side, 3 side chain; linkers in the order of their positions; H or OH if unused. Positions of bridges follow the written chain, without caps; N, C: chain ends. Non-standard residues stand in square brackets, D forms with d. Residues, ends and D or L forms follow the SMILES beside them. *: point of attachment. hTyr(3S-OH,4S-OH,3'-OSO3H) = N[C@H](C(=O)O)[C@H](O)[C@@H](O)c1ccc(O)c(OS(=O)(=O)O)c1; Orn(4R-OH,5R-OH) = O=C([C@H](C[C@@H](O)[C@@H](O)N[*:3])N[*:1])[*:2]; Pro(3S-OH,4S-Me) = C[C@H]1CN[C@H](C(=O)O)[C@H]1O; X1 = CCCCCOc1ccc(-c2cc(-c3ccc(C(=O)*)cc3)no2)cc1; Gln(3R-OH) = NC(=O)C[C@@H](O)[C@H](N)C(=O)O; Hyp = O=C(O)[C@@H]1C[C@@H](O)CN1

Legend:
Format in all cases: biochemical
[1] = target: T1, recombinant PRL-1 (Homo sapiens, UniProt Q93096); experiment: In vitro phosphatase assay (DiFMUP hydrolysis), PRL-1; further: test concentration or dose not given here
T1 construct: 6xHis (N, cleaved yes); made in house; host or cells: E. coli One Shot BL21 Star
T1 sequence (Q93096 1-173): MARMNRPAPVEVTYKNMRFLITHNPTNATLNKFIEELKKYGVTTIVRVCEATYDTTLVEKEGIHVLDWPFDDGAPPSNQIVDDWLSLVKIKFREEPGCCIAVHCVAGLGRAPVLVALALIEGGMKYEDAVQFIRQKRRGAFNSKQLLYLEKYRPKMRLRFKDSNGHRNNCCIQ

[2] = target: T2, recombinant PRL-2 (Homo sapiens, UniProt Q12974); experiment: In vitro phosphatase assay (DiFMUP hydrolysis), PRL-2;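 further: PRL-2 activity read as DiFMUP hydrolysis after 20 min at room temperature with drug, enzyme first pre-reduced at 4 °C for 20 min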
T2 construct: 6xHis (N, cleaved yes); made in house; host or cells: E. coli One Shot BL21 Star
T2 sequence (Q12974 1-167): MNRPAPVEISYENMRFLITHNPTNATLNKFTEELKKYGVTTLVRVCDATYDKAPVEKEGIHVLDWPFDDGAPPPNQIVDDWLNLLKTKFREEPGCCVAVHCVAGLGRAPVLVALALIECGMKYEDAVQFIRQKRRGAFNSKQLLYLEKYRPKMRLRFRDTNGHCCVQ

[3] = target: T3, recombinant PRL-3 (Homo sapiens, UniProt O75365); experiment: In vitro phosphatase assay (DiFMUP hydrolysis), PRL-3; further: test concentration or dose not given here
T3 construct: 6xHis (N, cleaved yes); made in house; host or cells: E. coli One Shot BL21 Star

[4] = FDA-approved drug screen, compared to DMSO
[5] = FDA-approved drug screen, activity compared to DMSO

T3 sequence (O75365 whole entry): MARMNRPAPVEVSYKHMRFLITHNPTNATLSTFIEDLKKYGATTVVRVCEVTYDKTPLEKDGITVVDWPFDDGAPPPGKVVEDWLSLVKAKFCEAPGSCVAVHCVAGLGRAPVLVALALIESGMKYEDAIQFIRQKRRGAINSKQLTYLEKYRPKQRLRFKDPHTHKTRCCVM

| Compound | % Phosphatase Activity (compared to DMSO) PRL-1 [1, 4] | % Phosphatase Activity (compared to DMSO) PRL-2 [2, 4] | % Phosphatase Activity (compared to DMSO) PRL-3 [3, 4] | further results |
| --- | --- | --- | --- | --- |
| O=C(O)c1cc(=O)[nH]c(=O)[nH]1.O=C(O)c1cc(=O)[nH]c(=O)[nH]1 [Orotic acid (6-Carboxyuracil)] | 106% | 109% | 95% | – |
| CN(C)CCCOc1nn(Cc2ccccc2)c2ccccc12 [Benzydamine HCl] | 100% | 116% | 77% | – |
| NC(=O)c1ncn([C@@H]2O[C@H](CO)[C@@H](O)[C@H]2O)c1N [Acadesine] | 91% | 100% | 95% | – |
| CN(C)[C@@H]1C(O)=C(C(N)=O)C(=O)[C@@]2(O)C(O)=C3C(=O)c4c(O)cccc4[C@@](C)(O)[C@H]3[C@H](O)[C@@H]12 [Oxytetracycline Dihydrate] | 98% | 101% | 98% | – |
| CC(C)OC(=O)C(C(=O)OC(C)C)=C1SC=CS1 [Malotilate] | 70% | 58% | 61% | – |
| C[N+]1(C)[C@@H]2CC[C@H]1C[C@@H](OC(=O)C(O)c1ccccc1)C2 (stereo partly drawn) [Homatropine Methylbromide] | 107% | 100% | 95% | – |
| C[C@@H]1COC(Nc2ccc3ncnc(Nc4ccc(OCc5nccs5)c(Cl)c4)c3c2)=N1 [Varlitinib] | – | – | – | % Phosphatase Activity (compared to DMSO) PRL-1 [1, 5]: 126%; % Phosphatase Activity (compared to DMSO) PRL-2 [2, 5]: 142%; % Phosphatase Activity (compared to DMSO) PRL-3 [3, 5]: 132% |
| CC(=O)O[C@H]1C(=O)[C@@]2(C)[C@H]([C@H](OC(=O)c3ccccc3)[C@]3(O)C[C@H](OC(=O)[C@H](O)[C@@H](NC(=O)c4ccccc4)c4ccccc4)C(C)=C1C3(C)C)[C@]1(OC(C)=O)CO[C@@H]1C[C@@H]2O [Paclitaxel] | 94% | 97% | 76% | – |
| O=C1[C@H](CC[C@H](O)c2ccc(F)cc2)[C@@H](c2ccc(O)cc2)N1c1ccc(F)cc1 [Ezetimibe] | 100% | 82% | 80% | – |
| CCCCc1ncc(/C=C(\Cc2cccs2)C(=O)O)n1Cc1ccc(C(=O)O)cc1 [Eprosartan Mesylate] | 89% | 100% | 72% | – |
| CN(C)[C@@H]1C(O)=C(C(N)=O)C(=O)[C@@]2(O)C(O)=C3C(=O)c4c(O)ccc(Cl)c4[C@@H](O)[C@H]3C[C@@H]12 [Demeclocycline HCl] | 90% | 86% | 67% | – |
| C[C@]12CCC(=O)C=C1[C@@H]1C[C@@H]1[C@H]1[C@@H]3[C@@H]4C[C@@H]4[C@@]4(CCC(=O)O4)[C@@]3(C)CC[C@@H]12 [Drospirenone] | 90% | 89% | 71% | – |
| C[C@H](NCc1ccc(OCc2cccc(F)c2)cc1)C(N)=O [Safinamide Mesylate] | 103% | 112% | 86% | – |
| CN(C)c1ccc(O)c2c1C[C@H]1C[C@H]3[C@H](N(C)C)C(O)=C(C(N)=O)C(=O)[C@@]3(O)C(O)=C1C2=O [Minocycline HCl] | 84% | 70% | 104% | – |
| C[C@H](O)C(=O)Nc1c(I)c(C(=O)NC(CO)CO)c(I)c(C(=O)NC(CO)CO)c1I [Iopamidol] | 96% | 98% | 90% | – |
| Cc1cc2c(s1)Nc1ccccc1N=C2N1CCN(C)CC1 [Olanzapine] | 99% | 97% | 80% | – |
| Nc1ccccc1NC(=O)c1ccc(CNC(=O)OCc2cccnc2)cc1 [Entinostat (MS-275)] | 91% | 91% | 80% | – |
| N#CC[C@H](C1CCCC1)n1cc(-c2ncnc3[nH]ccc23)cn1 [Ruxolitinib (INCB018424)] | 116% | 132% | 66% | – |

| Compound | % Phosphatase Activity (compared to DMSO) PRL-1 [1, 4] | % Phosphatase Activity (compared to DMSO) PRL-2 [2, 4] | % Phosphatase Activity (compared to DMSO) PRL-3 [3, 4] | further results |
| --- | --- | --- | --- | --- |
| C[C@@H]1C[C@H]2[C@@H]3CCC4=CC(=O)C=C[C@]4(C)[C@@]3(Cl)[C@@H](O)C[C@]2(C)[C@@]1(OC(=O)c1ccco1)C(=O)CCl [Mometasone furoate] | 85% | 87% | 77% | – |
| CS(=O)(=O)O.Oc1ccc(C2CNCCc3c2cc(O)c(O)c3Cl)cc1 (stereo not drawn) [Fenoldopam (mesylate)] | 108% | 102% | 96% | – |
| C=CC1=C(C(=O)O)N2C(=O)[C@@H](NC(=O)/C(=N\O)c3csc(N)n3)[C@H]2SC1 [Cefdinir] | 109% | 110% | 88% | – |
| CN(C)CCC=C1c2ccccc2CCc2ccccc21 [Amitriptyline HCl] | 92% | 101% | 89% | – |
| Cc1cccc([C@H](C)c2cnc[nH]2)c1C [Dexmedetomidine] | – | – | – | % Phosphatase Activity (compared to DMSO) PRL-1 [1]: 98%; % Phosphatase Activity (compared to DMSO) PRL-2 [2]: 113%; % Phosphatase Activity (compared to DMSO) PRL-3 [3]: 94% |
| CN1CC2c3ccccc3Oc3ccc(Cl)cc3C2C1 (stereo not drawn) [Asenapine] | 98% | 107% | 79% | – |
| Cc1c(OCC(F)(F)F)ccnc1C[S+]([O-])c1nc2ccccc2[nH]1 (stereo not drawn) [Lansoprazole] | 94% | 92% | 59% | – |
| O=C(/C=C/c1cccc(S(=O)(=O)Nc2ccccc2)c1)NO [Belinostat (PXD101)] | 98% | 104% | 80% | – |
| COc1ccc(C(=O)NCc2ccc(OCCN(C)C)cc2)cc1OC.Cl [Itopride hydrochloride] | 95% | 115% | 80% | – |
| CCCCOc1cc(C(=O)OCCN(CC)CC)ccc1N [Oxybuprocaine HCl] | 97% | 103% | 93% | – |
| Cc1cc(Nc2cc(N3CCN(C)CC3)nc(Sc3ccc(NC(=O)C4CC4)cc3)n2)n[nH]1 [VX-680 (Tozasertib, MK-0457)] | – | – | – | % Phosphatase Activity (compared to DMSO) PRL-1 [1, 5]: 89%; % Phosphatase Activity (compared to DMSO) PRL-2 [2, 5]: 87%; % Phosphatase Activity (compared to DMSO) PRL-3 [3, 5]: 82% |
| Cc1ccc(Nc2nccc(N(C)c3ccc4c(C)n(C)nc4c3)n2)cc1S(N)(=O)=O.Cl [Pazopanib HCl] | 86% | 83% | 82% | – |
| Oc1ccc(/C=C/c2cc(O)cc(O)c2)cc1 [Resveratrol] | 107% | 112% | 84% | – |
| c1ccc(-c2ccc(C(c3ccccc3)n3ccnc3)cc2)cc1 (stereo not drawn) [Bifonazole] | 86% | 108% | 94% | – |
| CC(C)Nc1cc(-c2c[nH]c(C(=O)N[C@H](CO)c3cccc(Cl)c3)c2)c(Cl)cn1 [Ulixertinib (BVD-523, VRT752271)] | – | – | – | % Phosphatase Activity (compared to DMSO) PRL-1 [1, 5]: 99%; % Phosphatase Activity (compared to DMSO) PRL-2 [2, 5]: 90%; % Phosphatase Activity (compared to DMSO) PRL-3 [3, 5]: 105% |
| CCCCCOc1ccc(-c2cc(-c3ccc(C(=O)N[C@H]4C[C@@H](O)[C@@H](O)NC(=O)[C@@H]5[C@@H](O)[C@@H](C)CN5C(=O)[C@H]([C@H](O)CC(N)=O)NC(=O)[C@H]([C@H](O)[C@@H](O)c5ccc(O)c(OS(=O)(=O)[O-])c5)NC(=O)[C@@H]5C[C@@H](O)CN5C(=O)[C@H]([C@@H](C)O)NC4=O)cc3)no2)cc1.[Na+] [Micafungin Sodium] (X1-[Orn(4R-OH,5R-OH)]T[Hyp][hTyr(3S-OH,4S-OH,3'-OSO3H)][Gln(3R-OH)][Pro(3S-OH,4S-Me)]; lactam 1-C) | 74% | 90% | 49% | – |
| CCN[C@H]1CN(CCCOC)S(=O)(=O)c2sc(S(N)(=O)=O)cc21 [Brinzolamide] | 92% | 110% | 81% | – |
| CC(C)OC(=O)[C@H](C)N[P@](=O)(CO[C@H](C)Cn1cnc2c(N)ncnc21)Oc1ccccc1 [Tenofovir Alafenamide (GS-7340)] | – | – | – | % Phosphatase Activity (compared to DMSO) PRL-1 [1]: 94%; % Phosphatase Activity (compared to DMSO) PRL-2 [2]: 74%; % Phosphatase Activity (compared to DMSO) PRL-3 [3]: 91% |
